Laboratory results: patent publication EP4714938A1, “HDAC1/2 SELECTIVE INHIBITOR AND USE THEREOF” (Wigen Biomedicine Technology (Shanghai) Co., Ltd., priority 2023, dated 2024)
Where two headings read alike, the source gives them in different places.

Tests used:
HDAC1 = HDAC1 (Homo sapiens, UniProt Q13547); assay: HDAC enzyme inhibitory activity, FRET method; assay type: biochemical
HDAC6 = target: T1, HDAC6 (Homo sapiens, UniProt Q9UBN7); assay: HDAC enzyme inhibitory activity, FRET method; assay type: biochemical; details: Table 6; read-out: IC50 HDAC subtype 6
T1 sequence (Q9UBN7 1-1215): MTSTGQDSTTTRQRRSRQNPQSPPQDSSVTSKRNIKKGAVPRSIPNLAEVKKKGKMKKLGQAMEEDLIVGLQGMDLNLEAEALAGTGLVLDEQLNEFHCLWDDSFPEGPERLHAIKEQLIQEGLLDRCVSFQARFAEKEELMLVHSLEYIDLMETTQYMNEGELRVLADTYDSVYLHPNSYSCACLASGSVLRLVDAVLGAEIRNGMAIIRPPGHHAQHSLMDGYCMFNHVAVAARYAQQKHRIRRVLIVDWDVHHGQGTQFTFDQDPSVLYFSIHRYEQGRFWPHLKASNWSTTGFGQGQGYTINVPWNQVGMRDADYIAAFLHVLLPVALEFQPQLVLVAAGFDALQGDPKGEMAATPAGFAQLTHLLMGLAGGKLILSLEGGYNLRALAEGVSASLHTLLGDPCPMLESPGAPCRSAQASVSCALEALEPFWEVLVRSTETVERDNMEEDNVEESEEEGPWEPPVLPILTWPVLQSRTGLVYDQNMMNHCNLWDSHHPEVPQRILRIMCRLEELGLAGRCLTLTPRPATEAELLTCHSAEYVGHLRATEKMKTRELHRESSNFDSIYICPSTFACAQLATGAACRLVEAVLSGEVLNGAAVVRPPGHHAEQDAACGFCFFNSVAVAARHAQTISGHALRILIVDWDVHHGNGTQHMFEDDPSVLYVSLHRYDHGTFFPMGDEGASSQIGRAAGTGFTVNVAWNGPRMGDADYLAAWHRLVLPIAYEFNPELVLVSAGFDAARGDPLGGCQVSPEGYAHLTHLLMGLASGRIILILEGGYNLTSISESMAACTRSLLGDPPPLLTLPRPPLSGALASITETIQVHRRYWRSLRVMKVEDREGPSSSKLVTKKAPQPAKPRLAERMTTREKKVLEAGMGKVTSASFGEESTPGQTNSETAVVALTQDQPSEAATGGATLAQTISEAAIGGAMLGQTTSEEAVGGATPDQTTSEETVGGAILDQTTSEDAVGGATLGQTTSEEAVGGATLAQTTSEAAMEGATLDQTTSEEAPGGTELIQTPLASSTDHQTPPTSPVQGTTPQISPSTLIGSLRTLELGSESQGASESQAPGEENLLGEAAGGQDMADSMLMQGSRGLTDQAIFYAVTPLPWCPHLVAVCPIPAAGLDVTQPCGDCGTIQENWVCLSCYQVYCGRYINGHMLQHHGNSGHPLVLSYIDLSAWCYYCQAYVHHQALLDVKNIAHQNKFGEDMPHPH
Protocol: (§1) The compounds of the present disclosure were assayed for enzyme inhibitory activity against various subtypes of HDAC enzymes by the FRET method. The various subtypes of HDAC enzymes were obtained either through purification or direct purchase of assay kits.
(§2) The specific method was as follows: The enzyme was added to a 384-well plate, and a reaction buffer was added to the control well. Serially diluted DMSO sample solutions were added to the reaction wells, and the plate was incubated at room temperature for 15 min. Then a chromogenic agent was added to stop the reaction, and fluorescence was generated. The fluorescence intensity was measured using an EnVision multi-label microplate reader (excitation: 355 nm, emission: 460 nm). The endpoint value was read after the color development reached stability. The inhibition IC50 of the compounds was calculated using GraphPad Prism4 software relative to DMSO.

HDAC7 = target: T2, HDAC7 (Homo sapiens, UniProt Q8WUI4); assay: HDAC enzyme inhibitory activity, FRET method; assay type: biochemical; details: Table 6; read-out: IC50 HDAC subtype 7
T2 sequence (Q8WUI4 1-952): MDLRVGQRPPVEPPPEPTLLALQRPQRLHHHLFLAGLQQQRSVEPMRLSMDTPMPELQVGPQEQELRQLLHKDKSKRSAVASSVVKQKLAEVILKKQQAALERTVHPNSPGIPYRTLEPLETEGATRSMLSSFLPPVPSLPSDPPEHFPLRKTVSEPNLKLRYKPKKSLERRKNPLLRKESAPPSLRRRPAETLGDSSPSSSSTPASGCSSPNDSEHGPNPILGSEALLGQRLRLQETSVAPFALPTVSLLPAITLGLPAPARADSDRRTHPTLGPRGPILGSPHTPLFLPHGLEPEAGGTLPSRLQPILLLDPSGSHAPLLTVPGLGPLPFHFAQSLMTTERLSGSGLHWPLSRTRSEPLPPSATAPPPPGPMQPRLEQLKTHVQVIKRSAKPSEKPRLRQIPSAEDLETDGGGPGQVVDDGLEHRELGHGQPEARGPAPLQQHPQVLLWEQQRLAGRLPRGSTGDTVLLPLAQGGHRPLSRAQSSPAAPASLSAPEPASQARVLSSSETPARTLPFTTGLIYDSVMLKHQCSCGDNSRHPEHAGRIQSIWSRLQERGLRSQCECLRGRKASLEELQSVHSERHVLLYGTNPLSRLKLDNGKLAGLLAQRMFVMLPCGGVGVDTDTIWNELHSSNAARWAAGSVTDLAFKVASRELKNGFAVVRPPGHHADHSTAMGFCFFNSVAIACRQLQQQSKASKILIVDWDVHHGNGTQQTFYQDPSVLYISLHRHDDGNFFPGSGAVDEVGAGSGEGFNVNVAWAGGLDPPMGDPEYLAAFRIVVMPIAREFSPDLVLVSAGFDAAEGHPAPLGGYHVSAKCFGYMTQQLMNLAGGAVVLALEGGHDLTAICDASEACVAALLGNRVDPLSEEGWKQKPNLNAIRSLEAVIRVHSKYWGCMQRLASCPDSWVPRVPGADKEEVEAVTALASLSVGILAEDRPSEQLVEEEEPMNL
Protocol: as §1, §2

HDAC9 = HDAC9 (Homo sapiens, UniProt Q9UKV0); assay: HDAC enzyme inhibitory activity, FRET method; assay type: biochemical; details: Table 6; read-out: IC50 HDAC subtype 9
Protocol: as §1, §2

HDAC11 = target: T3, HDAC11 (Homo sapiens, UniProt Q96DB2); assay: HDAC enzyme inhibitory activity, FRET method; assay type: biochemical; details: Table 6; read-out: IC50 HDAC subtype 11
T3 sequence (Q96DB2 1-347): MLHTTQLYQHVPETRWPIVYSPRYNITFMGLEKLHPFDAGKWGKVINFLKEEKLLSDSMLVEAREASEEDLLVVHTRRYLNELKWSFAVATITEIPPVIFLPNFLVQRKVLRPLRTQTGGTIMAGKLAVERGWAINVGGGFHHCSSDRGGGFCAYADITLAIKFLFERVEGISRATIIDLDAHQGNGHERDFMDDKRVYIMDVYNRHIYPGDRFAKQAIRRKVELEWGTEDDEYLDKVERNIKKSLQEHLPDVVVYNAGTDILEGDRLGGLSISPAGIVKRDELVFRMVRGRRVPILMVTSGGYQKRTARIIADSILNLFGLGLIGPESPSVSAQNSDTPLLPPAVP
Protocol: as §1, §2

[1] = system: Mouse colon cancer CT-26 cells; details: for Tumor response, number of mice (CR/PR/SD): 6 mice per group; for TGI(%): QD for 14 consecutive days, PO
Protocol: Female BALB/c mice (aged 6 weeks, 18-22 g) were provided by Vital River Laboratory Animal Technology Co., Ltd. (China) and used one week after quarantine and acclimation. All animals were kept in a room at 23±2 °C with a relative humidity of 50±5%, artificial lighting was provided from 08:00 to 20:00 every day, and the air was exchanged 13-18 times per hour.
Mouse colon cancer CT-26 cells were cultured conventionally in 1640 medium containing 10% fetal bovine serum in an incubator at 37 °C with 5% CO2. After being subcultured, the cells were collected when they reached the desired amount. The BALB/c mice were subcutaneously injected with 2 × 10^5 CT-26 cells on the right side to form tumors. After the tumors grew to about 100 mm^3, the animals were randomly grouped for administration. Tumor volumes were measured with a caliper on day 3, day 7, day 10, day 14, day 17, and day 21 after the administration. The ability of the compounds to inhibit tumor growth was evaluated according to the tumor growth inhibition rate (TGI) = 1 - (tumor volume on day 28 in treatment group - tumor volume on day 1 in treatment group)/(tumor volume on day 28 in control group - tumor volume on day 1 in control group). The toxicity of the compounds was evaluated according to the body weight and state of the mice.

HDAC1, sequence (Q13547 whole entry, species assumed): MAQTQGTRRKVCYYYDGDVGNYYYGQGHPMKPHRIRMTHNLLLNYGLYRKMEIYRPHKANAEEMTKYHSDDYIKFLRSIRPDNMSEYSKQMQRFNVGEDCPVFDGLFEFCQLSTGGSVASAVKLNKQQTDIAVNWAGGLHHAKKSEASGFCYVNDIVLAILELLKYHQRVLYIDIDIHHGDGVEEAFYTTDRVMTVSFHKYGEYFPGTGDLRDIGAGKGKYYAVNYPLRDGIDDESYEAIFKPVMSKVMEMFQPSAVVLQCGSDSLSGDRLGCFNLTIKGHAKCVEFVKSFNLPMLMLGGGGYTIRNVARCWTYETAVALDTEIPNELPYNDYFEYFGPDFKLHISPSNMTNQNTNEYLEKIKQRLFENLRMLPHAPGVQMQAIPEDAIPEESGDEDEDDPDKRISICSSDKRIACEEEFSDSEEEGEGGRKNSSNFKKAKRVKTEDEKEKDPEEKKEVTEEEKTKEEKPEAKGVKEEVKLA
HDAC9, sequence (Q9UKV0 whole entry, species assumed): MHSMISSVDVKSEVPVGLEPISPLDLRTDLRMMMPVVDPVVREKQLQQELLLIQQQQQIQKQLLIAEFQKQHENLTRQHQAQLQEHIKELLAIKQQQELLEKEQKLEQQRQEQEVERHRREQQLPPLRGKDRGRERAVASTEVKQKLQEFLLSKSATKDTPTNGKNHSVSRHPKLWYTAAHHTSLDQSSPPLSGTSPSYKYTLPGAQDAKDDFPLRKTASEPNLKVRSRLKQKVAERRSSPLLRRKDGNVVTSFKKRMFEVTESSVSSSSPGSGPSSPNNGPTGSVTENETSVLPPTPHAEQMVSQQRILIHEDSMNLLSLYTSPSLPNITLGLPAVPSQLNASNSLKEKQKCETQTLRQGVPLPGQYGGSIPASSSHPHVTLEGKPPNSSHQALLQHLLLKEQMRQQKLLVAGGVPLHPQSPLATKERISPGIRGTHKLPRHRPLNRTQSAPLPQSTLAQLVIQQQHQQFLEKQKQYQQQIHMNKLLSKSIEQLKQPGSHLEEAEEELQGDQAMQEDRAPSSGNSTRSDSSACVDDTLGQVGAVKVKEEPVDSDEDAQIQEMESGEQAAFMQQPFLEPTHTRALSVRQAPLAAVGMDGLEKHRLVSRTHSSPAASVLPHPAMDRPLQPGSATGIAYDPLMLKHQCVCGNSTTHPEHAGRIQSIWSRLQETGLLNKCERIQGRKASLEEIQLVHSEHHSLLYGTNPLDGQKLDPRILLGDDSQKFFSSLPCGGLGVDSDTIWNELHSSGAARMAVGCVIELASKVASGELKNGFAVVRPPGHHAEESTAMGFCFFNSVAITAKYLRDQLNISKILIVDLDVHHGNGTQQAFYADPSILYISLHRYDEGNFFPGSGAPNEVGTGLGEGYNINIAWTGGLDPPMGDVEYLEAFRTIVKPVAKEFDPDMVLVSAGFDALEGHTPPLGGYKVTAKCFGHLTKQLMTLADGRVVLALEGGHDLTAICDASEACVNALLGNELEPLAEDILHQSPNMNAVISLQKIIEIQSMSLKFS

## CS(C)(=O)=Nc1ccc(C(=O)Nc2cc(-c3ccc(F)cc3)ccc2N)cc1 [Compound 1, N-(4-Amino-4'-fluoro-[1,1'-biphenyl]-3-yl)-4-((dimethyl(oxo)-1^λ-6-sulfaneylidene)amino)benzamide]
HDAC1; Table 4, read-out: IC50 HDAC1
  IC50: < 0.5 µM
HDAC1; Table 5, read-out: IC50 HDAC1
  IC50: < 0.03 µM
HDAC1; Table 6, read-out: IC50 HDAC subtype 1
  IC50: 0.0265 µM
HDAC6
  IC50: > 30 µM
HDAC7
  IC50: > 30 µM
HDAC9
  IC50: > 30 µM
HDAC11
  IC50: > 30 µM
[1]; monotherapy 30 mg/kg QD PO
  Change in body weight(%): 1.13+3.79%
  Tumor response, number of mice (CR/PR/SD): 1PR
[1]; monotherapy 30 mg/kg
  TGI(%): 38.57%
[1]; monotherapy 90 mg/kg QD PO
  Change in body weight(%): -10.53+7.1%
  Tumor response, number of mice (CR/PR/SD): 1PR+1SD
[1]; monotherapy 90 mg/kg
  TGI(%): 88.35%
